Values of other authors in publication PMC8113538, “Acute toxicity analysis of an inhibitor of BCL2, Disarib, in rats” (Scientific Reports, 2021).
Where two headings read alike, the source gives them in different places.

Tests used:
[1] = cited from earlier work; for solubility in organic solvents: DMSO and Dimethylformamide
[2] = rats; cited from earlier work
[3] = cited from earlier work
circulating platelets = tested on: circulating platelets; set-up: method as in PMID 26589495, PMID 21094089, PMID 17205078; conditions: preclinical studies; cited from earlier work
[4] = set-up: method as in EMA Venclyxto public assessment report, 16; conditions: dogs; ref EMA Venclyxto public assessment report, 16; cited from earlier work
[5] = set-up: method as in EMA Venclyxto public assessment report, 16; conditions: monkey; ref EMA Venclyxto public assessment report, 16; cited from earlier work
platelets = tested on: platelets; set-up: method as in PMID 26589495; conditions: clinical trials; cited from earlier work

| SMILES | solubility in organic solvents [1] | solubility in absolute ethanol [1] | solubility in aqueous buffers [1] | bioavailability [2] | oral bioavailability (in words) [3] | plasma clearance [3] | number of circulating platelets (circulating platelets) | half life [4] [h] | half life [5] [h] | toxic effect on platelets (platelets) |
| --- | --- | --- | --- | --- | --- | --- | --- | --- | --- | --- |
| CC1(C)CCC(c2ccc(Cl)cc2)=C(CN2CCN(c3ccc(C(=O)NS(=O)(=O)c4ccc(N[C@H](CCN5CCOCC5)CSc5ccccc5)c(S(=O)(=O)C(F)(F)F)c4)cc3)CC2)C1 [ABT263] | showed solubility in organic solvents such as DMSO and Dimethylformamide | soluble in absolute ethanol | minimal | ~ 20% | orally bioavailable | low plasma clearance value | rapid and concentration-dependent decrease in the number of circulating platelets | – | – | – |
| CN(C)CC[C@H](CSc1ccccc1)Nc1ccc(S(=O)(=O)NC(=O)c2ccc(N3CCN(Cc4ccccc4-c4ccc(Cl)cc4)CC3)cc2)cc1[N+](=O)[O-] [ABT737] | showed solubility in organic solvents such as DMSO and Dimethylformamide | – | minimal | – | not orally bioavailable | low plasma clearance value | rapid and concentration-dependent decrease in the number of circulating platelets | – | – | – |
| CC1(C)CCC(CN2CCN(c3ccc(C(=O)NS(=O)(=O)c4ccc(NCC5CCOCC5)c([N+](=O)[O-])c4)c(Oc4cnc5[nH]ccc5c4)c3)CC2)=C(c2ccc(Cl)cc2)C1 [ABT199] | showed solubility in organic solvents such as DMSO and Dimethylformamide | soluble in absolute ethanol | minimal | – | orally bioavailable | – | – | 12 | 2.2 | no toxic effect on platelets |
